For series [1], the system named is human platelets. Put plainly: Thrombin-induced clot retraction in human platelet-rich plasma. The class given is cell-based. The method, then:
750 μL of Tyrode's buffer supplemented with inhibitor was mixed in a glass culture tube with 200 μL of PRP and 5 μL red blood cells. Clotting was initiated by addition of 50 μL thrombin at 10 units/mL in saline and a sealed Pasteur pipette secured in the tube center. Digital photographs of the experiment were taken at 15-minute intervals over 2 hours. Images were analyzed with ImageJ software to determine the area occupied by the clot and plasma. Plots of the relative areas and linear regressions were performed with SigmaPlot (Systat Software, San Jose, Calif.).
No ligands were added to the control tube. Photographs were taken immediately after thrombin addition (FIG. 5A) and at the end of the reaction (FIG. 5B). Clot retraction around the central glass rod placed in each glass test tube before thrombin addition is shown. 5 μL of red blood cells were added per 1 mL reaction to enhance the color contrast for photography.
Clot retraction normally helps secure hemostasis in vivo as evidenced by increased bleeding in mice with impaired clot retraction (see e.g., Leon et al, Blood 110, 3183-3191, doi:10.1182/blood-2007-03-080184 (2007)), or in recipients of any of the three anti-αIIbβ3 drugs (see e.g., Tutwiler et al, Biophys. J. 112, 714-723 (2017); Osdoit et al, J. Biol. Chem. 276, 6703-6710 (2001); Haling et al, Blood 117, 1719-1722 (2011)). The effects of Hr10 and eptifibatide on thrombin-induced clot retraction in fresh human platelet-rich plasma (PRP) (see e.g., Tucker et al, Methods Mol. Biol. 788, 101-107 (2012)) were compared. The kinetics of clot retraction were determined from quantification of serial images of the reaction acquired every 15 minutes for the 2-hour duration of the assay. […] Thrombolysis, 15, 71-80 (2003).

The next series deals with T1, αIIbβ3 (Homo sapiens, UniProt P05106+P08514).
T1 construct: expressed in transfected cells; host or cells: K562
Put plainly: Binding of conformation-sensitive mAbs AP5 / LIBS-1 to human platelets. The class given is cell-based.

Series [2] relates to human platelets. Kind of series: Surface expression of CD62P and CD63 on human platelets (flow cytometry). It is filed as cell-based. The following applies: 1.5 μM; ADP 20 μM; FIG. 11F. As for the experimental part: αVβ3-K562 cells or transiently transfected HEK293T (0.5×10^6 in 100 μL WB) were incubated in the absence or presence of unlabeled Hr10 or eptifibatide, each at 1.5 μM, for 20 min at RT. Alexa647-labeled AP5 Fab or unlabeled anti-LIBS-1 (each to 10 μg/mL) were added, and cells incubated for an additional 30 min before washing. Alexa647-labeled AP3 was used for normalization of integrin expression. APC-labeled goat anti-mouse Fc-specific antibody was added to anti-LIBS-1-bound cells for an additional 30 min at 4° C., cells washed and processed for flow cytometry. Binding of anti-CD62 and anti-CD63 mAbs to platelets was performed by incubating (20 min, RT) 100 μL of ligand-pretreated 3.2% sodium citrate whole blood with either Alexa488-labeled mAb (at 10 μg/mL) in the presence of 10 μg/mL Alexa647-labeled anti-CD42b. Cells were fixed in 2% paraformaldehyde and CD62 and CD63 expression was analyzed by flow cytometry in the CD42b positive population.

Series [3] has as its system human platelets. Kind of series: Cremaster laser injury thrombosis in vWF RH/RH NSG mice infused with human platelets. The class given is in vivo. The following applies: eptifibatide 5 μg/mouse, Hr10 60 μg/mouse (equimolar), infused 5 min before injury; FIG. 13A.
Procedure: Human blood was collected in 0.129 M sodium citrate (10:1 vol/vol). Blood was obtained from healthy donors after informed consent. Platelet-rich plasma (PRP) was separated after centrifugation (200 g, 10 minutes) at room temperature (RT). The platelets were then isolated from PRP, and prostaglandin E1 (Sigma-Aldrich) added to a final concentration of 1 μM. Platelets were then pelleted by centrifugation (800 g, 10 minutes) at RT. The pellet was washed in calcium-free Tyrode's buffer (134 mM NaCl, 3 mM KCl, 0.3 mM NaH2PO4, 2 mM MgCl2, 5 mM HEPES, 5 mM glucose, 0.1% NaHCO3, and 1 mM EGTA, pH 6.5), and re-suspended in CATCH buffer (PBS and 1.5% bovine serum albumin, 1 mM adenosine, 2 mM theophylline, 0.38% sodium citrate, all from Sigma-Aldrich). Platelet counts were determined using a HemaVet counter (Drew Scientific). Intravital microscopy was performed as previously described (see e.g., Celi et al, J. Thromb. Haemost. 1, 60-68 (2003); and Neyman et al, Blood, 112, 1101-1108 (2008)). vWF^RH RHNSG male mice were studied after being anesthetized using sodium pentobarbital (80 mg/kg) injected intraperitoneally. Mice were maintained under anesthesia with the same anesthetic delivered via a catheterized jugular vein at 5 mg/mL throughout the experiment. […]
Series [4] can be described thus: Tail bleeding in vWF RH/RH NSG mice infused with human platelets. The settings on record: mouse, in vivo. As for the experimental part: Pentobarbital-anesthetized vWF^RH RHNSG mice were infused retroorbitally with 8×10^8 washed human platelets in a final volume of 200 μL (so that ˜40% of the circulating platelets were human). After 5 minutes PBS, 3 μM eptifibatide or Hr10 were administered IV. After another 5 minutes, mouse tail injury was produced by amputating an 8-mm terminal tail segment using a razor blade, which was then placed in a collection tube containing sterile water at 37° C. for 10 minutes. The hemoglobin level in the water was measured by a spectrophotometer, as described (see e.g., Greene et al, J. Thromb. Haemost. 8, 2820-2822 (2010)) with the following modifications. Briefly, the hemolyzed whole blood/water mixture was centrifuged at 21,000×g for 5 minutes. Aliquots (20 μL) of clarified, stroma-free supernatant were diluted 10-fold in a Corning 96-well micro-plate and light absorbance measured at 575 nm (Spectramax-190 plate reader, Molecular Devices, San Jose, Calif.). Blood loss during the 10-minute window was measured based on a previously obtained standard curve.

“Also recorded” adds a separate entry of the source. Positions of bridges follow the written chain, without caps; N, C: chain ends. Non-standard residues stand in square brackets, D forms with d. Residues, ends and D or L forms follow the SMILES beside them. hArg = N=C(N)NCCCC[C@H](N)C(=O)O; Mpa = O=C(O)CCS

T1 sequence (P08514 32-887 limits assumed): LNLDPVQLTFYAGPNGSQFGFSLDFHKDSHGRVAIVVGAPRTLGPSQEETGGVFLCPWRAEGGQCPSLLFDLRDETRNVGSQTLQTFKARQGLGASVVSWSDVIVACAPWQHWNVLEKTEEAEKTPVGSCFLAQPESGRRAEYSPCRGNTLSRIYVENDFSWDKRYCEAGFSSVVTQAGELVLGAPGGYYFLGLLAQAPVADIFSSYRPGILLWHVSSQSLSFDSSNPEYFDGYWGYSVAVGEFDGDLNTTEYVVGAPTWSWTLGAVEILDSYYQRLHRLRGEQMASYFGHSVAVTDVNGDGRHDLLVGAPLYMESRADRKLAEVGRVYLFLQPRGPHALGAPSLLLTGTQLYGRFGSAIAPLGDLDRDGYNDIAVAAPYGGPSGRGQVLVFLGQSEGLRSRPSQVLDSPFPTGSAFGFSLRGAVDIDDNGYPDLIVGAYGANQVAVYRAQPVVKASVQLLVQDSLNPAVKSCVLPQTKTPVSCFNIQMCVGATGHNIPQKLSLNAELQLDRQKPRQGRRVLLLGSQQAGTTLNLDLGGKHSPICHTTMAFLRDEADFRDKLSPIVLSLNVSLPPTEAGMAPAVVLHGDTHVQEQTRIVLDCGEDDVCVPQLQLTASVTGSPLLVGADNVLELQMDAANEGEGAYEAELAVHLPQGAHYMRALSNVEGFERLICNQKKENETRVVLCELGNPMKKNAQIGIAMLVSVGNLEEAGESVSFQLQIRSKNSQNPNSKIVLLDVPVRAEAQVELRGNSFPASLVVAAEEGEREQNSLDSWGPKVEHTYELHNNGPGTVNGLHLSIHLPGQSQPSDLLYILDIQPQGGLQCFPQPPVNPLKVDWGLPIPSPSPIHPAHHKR
T1 sequence (P08514 891-1039 partner limits assumed): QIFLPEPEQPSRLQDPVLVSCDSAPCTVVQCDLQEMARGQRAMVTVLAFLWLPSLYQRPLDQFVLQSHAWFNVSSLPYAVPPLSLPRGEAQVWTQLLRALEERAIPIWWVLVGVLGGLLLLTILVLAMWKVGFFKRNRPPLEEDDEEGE
T1 sequence (P05106 27-788): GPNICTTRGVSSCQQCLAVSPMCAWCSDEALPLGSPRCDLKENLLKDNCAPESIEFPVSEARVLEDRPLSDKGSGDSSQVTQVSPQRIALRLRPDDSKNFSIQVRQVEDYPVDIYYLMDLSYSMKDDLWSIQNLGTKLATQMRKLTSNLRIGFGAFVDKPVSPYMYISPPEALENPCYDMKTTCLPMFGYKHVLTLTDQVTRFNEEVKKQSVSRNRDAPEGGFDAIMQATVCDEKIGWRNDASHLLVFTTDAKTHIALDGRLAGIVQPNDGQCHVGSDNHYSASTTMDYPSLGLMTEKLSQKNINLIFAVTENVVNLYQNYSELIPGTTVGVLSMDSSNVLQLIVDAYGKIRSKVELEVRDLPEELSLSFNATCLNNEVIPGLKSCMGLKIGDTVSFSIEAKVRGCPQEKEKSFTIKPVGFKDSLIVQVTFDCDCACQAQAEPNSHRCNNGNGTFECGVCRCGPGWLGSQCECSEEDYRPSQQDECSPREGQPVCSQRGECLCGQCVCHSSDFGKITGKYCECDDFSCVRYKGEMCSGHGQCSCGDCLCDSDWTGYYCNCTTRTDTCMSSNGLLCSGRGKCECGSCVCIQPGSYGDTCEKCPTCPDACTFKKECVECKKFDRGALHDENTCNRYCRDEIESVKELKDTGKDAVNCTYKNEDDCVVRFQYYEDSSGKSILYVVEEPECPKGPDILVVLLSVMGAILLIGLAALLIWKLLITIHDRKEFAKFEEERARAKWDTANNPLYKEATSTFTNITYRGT

Regarding `CCCCS(=O)(=O)N[C@@H](Cc1ccc(OCCCCC2CCNCC2)cc1)C(=O)O` [tirofiban], the “Kinetics of thrombin-induced clot retraction” value in the series with human platelets [1] (FIG. 6E, three experiments, vs buffer control) is on record as “effectively blocked thrombin-induced clot retraction”. Further, the “Clot retraction induced by α-thrombin (photographs)” value with human platelets [1] (tirofiban 1.5 μM, m-tirofiban 15 μM, α-thrombin 0.5 unit/mL, FIG. 5) is recorded as “completely blocked clot retraction”. For the same compound, on αIIbβ3 (tirofiban 150 nM, M-tirofiban 1.5 μM, ADP 5 μM, FIG. 6D), the “Induction of AP5 epitope expression on human platelets” value is “induced expression of the AP5 epitope”.

Turning to `N=C(N)NCCCC[C@@H]1NC(=O)CCSSC[C@@H](C(N)=O)NC(=O)[C@@H]2CCCN2C(=O)[C@H](Cc2c[nH]c3ccccc23)NC(=O)[C@H](CC(=O)O)NC(=O)CNC1=O` [eptifibatide] ([Mpa][hArg]GDWPC-NH2; disulfide 1-7), in the series on human platelets [2], the “ADP-induced secretion from lysosomes (CD63 expression)” value is given as “did not significantly alter; also recorded: No differences” and the “ADP-induced secretion from platelet α-granules (CD62P expression)” value is on record as “did not significantly alter; also recorded: No differences”. Also, in the series with human platelets [3], the “Nascent occlusive thrombus formation / human platelet accumulation at laser-induced arteriolar injury” value was “completely preventing nascent occlusive thrombus formation”. In the series with human platelets [1] (fresh human PRP, 2 hours, FIGS. 12A-12B, three experiments), the “Kinetics of thrombin-induced clot retraction vs. buffer” value is “significantly blocked clot retraction; also recorded: clot retraction was significantly reduced”. Also, the Bleeding volume in series [4] is reported as ~10 % of blood volume of a normal mouse. In addition, the “Bleeding in humanized mice” value in series [4] (iv) is listed as “caused excessive bleeding”. Moreover, at αIIbβ3 (1.5 μM, absence or presence of 5 μM ADP, FIG. 8D), the “Conformational changes in αIIbβ3 reported by binding of mAbs AP5 and LIBS-1” value is “induced conformational changes in αIIbβ3”.

Source of the values: patent US11685717B2, “Polypeptide integrin antagonists” (The General Hospital Corporation, priority 2018, dated 2023).
